Where two headings read alike, the source gives them in different places.
Assays:
[1] = test system: A375 human melanoma xenograft; assay: A375 in vivo study: tumor growth delay and regression responses; parameters: species or system athymic nude mice; conditions: for MTV (n) D45: Day 45
Description: Female athymic nude mice (Crl:NU(Ncr)-Foxn/^nu, Charles River) were nine weeks old with a body weight (BW) range of 17.5 to 26.2 grams on Day 1 of the study. The animals were fed ad libitum water (reverse osmosis, 1 ppm CI), and NIH 31 Modified and Irradiated Lab Diet® consisting of 18.0% crude protein, 5.0% crude fat, and 5.0% crude fiber. The mice were housed on irradiated Enrich-o'cobs™ Laboratory Animal Bedding in static microisolators on a 12-hour light cycle at 20-22° C. (68-72° F.) and 40-60% humidity. The recommendations of the Guide for Care and Use of Laboratory Animals with respect to restraint, husbandry, surgical procedures, feed and fluid regulation, and veterinary care were complied with.
Tumor xenografts were initiated with A375 human melanomas by serial subcutaneous transplantation in athymic nude mice. On the day of tumor implant, each test mouse received a 1 mm^3 A375 fragment implanted subcutaneously in the right flank, and tumor growth was monitored as the average size approached the target range of 80 to 120 mm^3. Tumors were measured in two dimensions using calipers, and volume was calculated using the formula: […]
Ten days after tumor implantation, designated as Day 1 of the study, the animals were sorted into nine groups (Groups 1-9) each consisting of fifteen mice and one group (Group 10) consisting of ten mice. Individual tumor volumes ranged from 75 to 144 mm^3 and group mean tumor volumes were 110 or 111 mm^3.
On Day 1 of the study, mice were sorted into nine groups (Group 1-9) each consisting of fifteen mice and one group (Group 10) consisting of ten mice, and dosing was initiated according to the treatment plan summarized in Table 15 below. Each dose was given by oral gavage (p.o.) in a dosing volume of 10 mL/kg (0.2 mL per 20 grams of body weight), scaled to the body weight of each individual animal. The vehicle and dabrafenib doses were to be given once daily until study end (qd to end), whereas the BVD-523 doses were to be given twice daily until study end (bid to end). For bid dosing, dosing was initiated in the afternoon on Day 1, so that one dose was given on the first day (“first day 1 dose”).
Due to the striking response to combination treatment, dosing in Groups 2-5 was stopped on Day 20 in order to monitor tumor re-growth. Dosing was to be re-initiated in a group when the mean tumor burden reached 1000 mm^3. By Day 42, the 1000 mm^3 mean tumor burden had not been reached in any of the combination groups. Dosing was re-initiated to permit post-final dose serum and tumor sampling for pharmacokinetic analyses. […] The final dosing schedules are shown below in Table 16.
Tumors were measured using calipers twice per week, and each animal was euthanized when its tumor reached the pre-determined tumor volume endpoint of 2000 mm^3 or on the final day, whichever came first. Animals that exited the study for tumor volume endpoint were documented as euthanized for tumor progression (TP), with the date of euthanasia. The time to endpoint (TTE) for analysis was calculated for each mouse by the following equation:
[formula] where TTE is expressed in days, endpoint volume is expressed in mm^3, b is the intercept, and m is the slope of the line obtained by linear regression of a log-transformed tumor growth data set. The data set consists of the first observation that exceeded the endpoint volume used in analysis and the three consecutive observations that immediately preceded the attainment of this endpoint volume. The calculated TTE is usually less than the TP date, the day on which the animal was euthanized for tumor size. […] Any animal classified as having died from NTR (non-treatment-related) causes due to accident (NTRa) or due to unknown etiology (NTRu) were excluded from TTE calculations (and all further analyses). Animals classified as TR (treatment-related) deaths or NTRm (non-treatment-related death due to metastasis) were assigned a TTE value equal to the day of death. […]

[2] = A375 in vivo study: toxicity (body weight, deaths, side effects)
Source text: Animals were weighed daily on Days 1-5, then twice per week until completion of the study. […] Individual body weight loss was monitored as per protocol, and any animal that exceeded the limits for acceptable body weight loss was euthanized. Group mean body weight loss also was monitored as per protocol. Dosing was to be suspended in any group that exceeded the limits for acceptable mean body weight loss. If mean body weight recovered, then dosing was to be resumed in that group, but at a lower dosage or less frequent dosing schedule.
Acceptable toxicity for the maximum tolerated dose (MTD) was defined as a group mean body-weight loss of less than 20% during the study and not more than 10% treatment-related (TR) deaths. […] A death was classified as non-treatment-related (NTR) if there was no evidence that death was related to treatment side effects. NTR deaths were further characterized based on cause of death. A death was classified as NTRa if it resulted from an accident or human error. […] A death was classified as NTRu if the cause of death was unknown and there was no available evidence of death related to treatment side effects, metastasis, accident or human error, although death due to treatment side effects cannot be excluded.

[3] = test system: MAPK signaling pathway in A375 and HCT116 cells; assay: Western blot analysis of MAPK signaling, cell cycle and apoptosis proteins; format: cell-based, human
Description: Cells were allowed to adhere overnight prior to addition of the indicated amount of test compound (BVD-523) or vehicle control. Cells were treated for either 4 or 24 hours before isolation of whole-cell protein lysates, as specified below. Cells were harvested by trypsinisation, pelleted and snap frozen. Lysates were prepared with RIPA (Radio-Immunoprecipitation Assay) buffer, clarified by centrifugation and quantitated by bicinchoninic acid assay (BCA) assay. 20-50 μg of protein was resolved by SDS-PAGE electrophoresis, blotted onto PVDF membrane and probed using the antibodies detailed in Table 13 (for the 4-hour treatment) and Table 14 (for the 24-hour treatment) below.

[4] = test system: melanoma xenograft model derived from biopsies obtained from a patient; assay: Melanoma xenograft model derived from patient biopsies after progression on vemurafenib; format: in vivo; conditions: model with acquired cross-resistance
[5] = test system: A375 cells; assay: Dose escalation study in A375 cells; format: cell-based, human; conditions: after 2 months, cells exposed to agent alone
Description: Single agent dose escalations were performed based on Little et al., 2011 and is outlined in FIG. 25. Cells were then allowed to grow until 70-90% confluence and split. […] Medium was refreshed every 3-4 days. When cells again reached about 40-60% confluence, the dose was escalated. In the event that the 40-60% window was missed, the cells were split again and dosed once they reached 40-60% confluence. Again, medium was refreshed every 3-4 days. The process was repeated as required (FIG. 25).

[6] = test system: A375; assay: Single agent proliferation assay (CellTiter-Glo, 72 h); format: cell-based, human; conditions: A375, 72 h
Description: (§1) Cells were seeded in 96-well plates at the densities and media conditions indicated in Table 17 and allowed to adhere overnight prior to addition of compound or vehicle control. Compounds were prepared from DMSO stocks to give the desired final concentrations. The final DMSO concentration was constant at 0.1%. Test compounds were incubated with the cells for 72 h at 37° C., 5% CO2 in a humidified atmosphere. CellTiter-Glo® reagent (Promega, Madison, Wis.) was added according to manufacturer's instructions and luminescence detected using the BMG FLUOstar plate reader (BMG Labtech, Ortenberg, Germany). The average media only background value was deducted and the data analysed using a 4-parameter logistic equation in GraphPad Prism (GraphPad Software, La Jolla, Calif.).

[7] = test system: G-361; assay: as above; format: cell-based; conditions: G-361, 72 h
Description: as §1

[8] = test system: A375 cells; assay: Combination study, 10×8 dose matrix, Alamar Blue / CellTiter-Glo, Bliss additivity model; format: cell-based, human; conditions: single agent
Description: For combination studies, A375 cells (ATCC) were seeded into triplicate 96-well plates at a cell density of 3000 cells/well in DMEM plus 10% FBS and allowed to adhere overnight prior to addition of test compound or vehicle control. Combinations were tested using a 10×8 dose matrix with a final DMSO concentration of 0.2%. A 96 hour assay incubation period followed, with subsequent addition of Alamar Blue 10% (v/v) and 4 hours incubation prior to reading on a fluorescent plate reader. After reading Alamar Blue, the medium/Alamar Blue mix was flicked off and 100 μl of CellTiter-Glo/PBS (1:1) added and the plates processed as per the manufacturer's instructions (Promega). Media only background values were subtracted before the data was analysed. The Bliss additivity model was then applied.
In brief, predicted fractional inhibition values for combined inhibition were calculated using the equation Cbliss=A+B−(A×B) where A and B are the fractional inhibitions obtained by drug A alone or drug B alone at specific concentrations. Cbliss is the fractional inhibition that would be expected if the combination of the two drugs were exactly additive. Cbliss values are subtracted from the experimentally observed fractional inhibition values to give an ‘excess over Bliss’ value. Excess over Bliss values greater than 0 indicate synergy, whereas values less than 0 indicate antagonism. […]

[9] = test system: MAPK signaling pathway in A375 and HCT116 cells; conditions: Morris et al., 2013; cited from earlier work
[10] = test system: A375 cells; assay: Proliferation assay (Alamar Blue, 96 hours) on parental and dose-escalated A375 cell lines; conditions: Homo sapiens
Description: Cancer cell lines were maintained in cell culture under standard media and serum conditions. For dose escalation studies, A375 cells were split, grown to about 40-60% confluence, and then treated with the initial dose of the specified drug.
Proliferation assays were used to track changes in sensitivity to the escalated agent(s) at appropriate time intervals (e.g. each month, although the timing is dependent on adequate cell numbers being available). For proliferation assays, cells were seeded in 96-well plates at 3000 cells per well in drug-free DMEM medium containing 10% FBS and allowed to adhere overnight prior to addition of compound or vehicle control. […] Test compounds were incubated with the cells for 96 hours at 37° C. and 5% CO2 in a humidified atmosphere. Alamar Blue 10% (v/v) was then added and incubated for 4 hours and fluorescent product was detected using a BMG FLUOstar plate reader. The average media only background value was deducted and the data analyzed using a 4-parameter logistic equation in GraphPad Prism. Paclitaxel was used as a positive control.

## CC(C)Nc1cc(-c2c[nH]c(C(=O)N[C@H](CO)c3cccc(Cl)c3)c2)c(Cl)cn1 [BVD-523]
[1]; G8: 50 mg/kg po bid to end
  % TGD: −7%
  Median TTE: 8.6 days
  PR (partial regressions): 0
  MTV (n) D45: 0 (1) imd
[1]; G9: 100 mg/kg po bid to end
  % TGD: 101%
  Median TTE: 18.5 days
  PR (partial regressions): 0
  T-C: 9.3 days
  MTV (n) D45: 2 (2) imd
[2]; G8: 50 mg/kg po bid to end
  Deaths NTR: 0
  Deaths TR: 0
[2]; G8: 50 mg/kg po bid to end, nadir on Day 2
  Mean BW Nadir: −0.1% Day 2
[2]; G9: 100 mg/kg po bid to end
  Deaths NTR: 0
  Deaths TR: 0
[3]; A375 cell background
  PARP protein cleavage and increased apoptosis: not noted
[3]; FIG. 18
  Autophosphorylation of ERK: allows for the autophosphorylation of ERK while still inhibiting ERK
[3]; prolonged treatment
  DUSP6 total protein levels: greatly reduced
  cyclin-D1 protein levels: greatly reduced
  total levels of Bim-EL: increase
[4]
  Anti-tumor response: potent anti-tumor response
[5]
  Increase in drug exposure beyond the IC50 that cells withstand: less than 10 fold
[6]; Homo sapiens, A-375
  IC50: 87 nM
[7]; Homo sapiens
  IC50: 344 nM

## CC(C)(C)c1nc(-c2cccc(NS(=O)(=O)c3c(F)cccc3F)c2F)c(-c2ccnc(N)n2)s1 [Dabrafenib]
[1]; G6: 50 mg/kg po qd to end
  % TGD: 75%
  CR (complete regressions): 0
  Median TTE: 16.1 days
  PR (partial regressions): 0
  T-C: 6.9 days
  TFS (tumor free survivors): 0
  Tumors that attained the 2000 mm^3 endpoint volume: All
[1]; G7: 100 mg/kg po qd to end
  % TGD: 210%
  CR (complete regressions): 0
  Median TTE: 28.5 days
  PR (partial regressions): 1
  T-C: 19.3 days
  TFS (tumor free survivors): 0
  Tumors that attained the 2000 mm^3 endpoint volume: 13/15
  MTV (n) D45: 282 (2) imd
[1]; G7: 100 mg/kg po qd to end, listed as dabrafenib
  PR (partial regressions): One and one
[1]; G7: 100 mg/kg po qd to end, two tumors remaining on Day 45
  MTV: 282 mm^3
[2]; G6: 50 mg/kg po qd to end
  Deaths NTR: 0
  Deaths TR: 0
[2]; G7: 100 mg/kg po qd to end
  Deaths NTR: 0
  Deaths TR: 0
[2]; mono- and combination therapy groups
  Signs of treatment-related side effects: no noteworthy signs of treatment-related side effects
[4]
  Anti-tumor response: insensitive
[6]; Homo sapiens, A-375
  IC50: ~0.7 nM
[7]; Homo sapiens
  IC50: ~1.4 nM
[8]
  Sensitivity of A375 cells (BRAF V600E): sensitive

## O=C(Nc1ccc2[nH]nc(-c3ccncc3)c2c1)[C@@H]1CCN(CC(=O)N2CCN(c3ccc(-c4ncccn4)cc3)CC2)C1 [SCH772984]
[6]; Homo sapiens, A-375
  IC50: 32 nM
[7]; Homo sapiens
  IC50: 180 nM
[9]
  Autophosphorylation of ERK: inhibit autophosphorylation of ERK

## N#Cc1c(Oc2ccc(F)c(NC(=O)Cc3cccc(C(F)(F)F)c3)c2)ccc2nc(NC(=O)C3CC3)sc12 [TAK-632]
[6]
  IC50: 26 nM
[7]
  IC50: 164 nM

## Cn1nnc2c(C(N)=O)ncn2c1=O [Temozolomide]
[1]; G10: 150 mg/kg po qd × 5
  % TGD: 14%
  CR (complete regressions): 0
  Median TTE: 10.5 days
  PR (partial regressions): 0
  T-C: 1.3 days
  TFS (tumor free survivors): 0
[2]; G10: 150 mg/kg po qd × 5
  Deaths NTR: 0
  Deaths TR: 0
[2]; G10: 150 mg/kg po qd × 5, nadir on Day 5
  Mean BW Nadir: −1.6% Day 5

## CC(=O)Nc1cccc(-n2c(=O)n(C3CC3)c(=O)c3c(Nc4ccc(I)cc4F)n(C)c(=O)c(C)c32)c1 [Trametinib]
[10]; A-375, read-out: Relative IC50, Month 1, Par = Parental cell line
  IC50: 0.5 nM
[10]; A-375, read-out: Relative IC50, Month 1, cell line BVD-523 (0.48 μM)
  IC50: 0.7 nM
[10]; A-375, read-out: Relative IC50, Month 1, cell line Dab (15 nM Dab)
  IC50: 2.5 nM
[10]; A-375, read-out: Relative IC50, Month 1, cell line Dab/523 (7.5 nM/0.24 μM)
  IC50: 3.1 nM
[10]; A-375, read-out: Relative IC50, Month 1, cell line Tram (growing in 2 nM Tram)
  IC50: 2.2 nM
[10]; A-375, read-out: Relative IC50, Month 2, Par = Parental cell line
  IC50: 0.4 nM
[10]; A-375, read-out: Relative IC50, Month 2, cell line BVD-523 (0.8 μM)
  IC50: 24.3 nM
[10]; A-375, read-out: Relative IC50, Month 2, cell line Dab (127 nM Dab)
  IC50: 1.1 nM
[10]; A-375, read-out: Relative IC50, Month 2, cell line Dab/523 (12.5 nM/0.4 μM)
  IC50: 6.2 nM
[10]; A-375, read-out: Relative IC50, Month 2, cell line Tra (8 nM Tram)
  IC50: 0.7 nM
[10]; A-375, read-out: Relative IC50, Month 3, Par = Parental cell line
  IC50: 0.2 nM
[10]; A-375, read-out: Relative IC50, Month 3, cell line Dab (3.2 μM Dab)
  IC50: 0.4 nM

## CCCS(=O)(=O)Nc1ccc(F)c(C(=O)c2c[nH]c3ncc(-c4ccc(Cl)cc4)cc23)c1F [Vemurafenib]
[6]; Homo sapiens, A-375
  IC50: 47 nM
[7]; Homo sapiens
  IC50: 248 nM
